# Measured values as given in patent publication US20140221225A1, “METHOD FOR OBTAINING A MULTICELLULAR SPHEROID” (Universiteit Leiden, priority 2011, published 2014).
# “Also recorded” adds a separate entry of the source.
# Key:
# 4T1 cells = test: Proof-of-principle drug screen on automatically injected 4T1 multicellular spheroids in collagen gel, 96 well plate; assay type: cell-based, mouse; conditions: for Feret's Diameter (longest distance between any two points along the selection boundary, maximum caliper), averages / Circularity (4π*area/perimeter^2, 1 = perfect circle), averages / Invasion area (area day 4/area day 0), averages: 1:1000 dilution (10 μM); for Feret's Diameter (longest distance between any two points along the selection boundary, maximum caliper), averages / Circularity (4π*area/perimeter^2, 1 = perfect circle), averages: automated analysis of fluorescent actin staining at day 4; for Feret's Diameter (longest distance between any two points along the selection boundary, maximum caliper), averages: Figure 7B, ctrl 0.67, unit assumed; for Circularity (4π*area/perimeter^2, 1 = perfect circle), averages: Figure 7C, ctrl 0.15; for Invasion area (area day 4/area day 0), averages: manual from DIC images at day 0 and day 4, Figure 7A, ctrl 25.88; for Cell migration from 4T1 spheroids: visual inspection / actin images after 4 days, 4, 10, 20 μM
# Procedure: (§1) Cell suspensions derived from trypsin-detached adherent cultures or from collagenase-treated biopsies were filtered to remove clumps, centrifuged at 1000 rpm for 5 minutes, and washed twice with PBS. ˜7×10^6 cells were re-suspended in 30 μl PBS containing 2% polyvinylpyrrolidone (PVP; Sigma-Aldrich). The PVP/cell suspension was loaded into a beveled pulled glass needle (Eppendorf CustomTip Type III, oD [μm] 60, Front surface 40, Flexibility: rigid).
# A glass-bottom 96 well plate (Greiner) containing 60 μl solidified collagen gel per well was placed in a motorized stage (MTmot 200×100 MR, Märzhäuser) connected to a controller (Tango, Märzhäuser). A motorized micro-manipulator (Injectman II, Eppendorf) was positioned above the stage and connected to a pump (Femtojet Express, Eppendorf) featuring an external compressor (lubricated compressor, model 3-4, JUN-AIR). A firewire camera (DFK41BF02.H, The Imaging Source) equipped with an 8× macro lens (MR8/O, The Imaging Source) was placed beneath the stage for calibration and imaging. All components were connected to the controlling computer (Ubuntu AMD64). A multi-threaded control program was written in Python using PySerial and wxPython. Coriander software (http://damien.douxchamps.net/ieee1394/coriander) was used for imaging.
# After the program was calibrated for the 96 well plate the camera height was adjusted to focus on the bottom of the 96 well plate. The plate was then removed for needle calibration: the injection needle was fixed in the Injectman and moved, using the Injectman controller, into the center of the image. The injection height was set to 200 µm above the bottom of the (virtual) plate. After the needle was moved up, the plate was placed back in position and the upper left well was used for multiple test injections to adjust pump pressure and injection time for optimization of the droplet size (300 µm diameter) using video inspection. Subsequently, using a pre-defined macro defining x-y coordinates and number of injections per well, all wells were injected using the same pressure and injection time.
# Differential interference contrast (DIC) images were captured using a charged coupled device (CCD) camera with NIS Image Pro software at 10× dry objective. Quantification of spheroid invasion area was analyzed from DIC images using ImageJ. […] One-way ANOVA was performed to test the significance of the data (p<0.05). The data are presented and plotted as average and standard error of the mean; tables are available in the supplement.
# For automated imaging, wells containing gel-embedded spheroids were treated with a fixation and staining cocktail containing 3.7% formaldehyde, 0.2% Triton X-100 (Sigma) and 0.1 μM rhodamine phalloidin (Sigma) for 3 hrs. Wells were washed extensively with PBS and plates were imaged on a Becton Dickinson Pathway 855 using a 4× lens. A montage of 12 frames was made for each Z plane, with a total of 24 Z planes at an interval of 50 μm. Image stacks were converted into 2D maximum fluorescence intensity projections using ImagePro 7.0. MS were then digitally segmented using ImageJ to identify the outline of individual spheroids and multiple parameters were measured, including spheroid Feret's diameter, roundness, and number of spheroids scored in each well.
# LY-294002 (phosphatidylinositol 3-kinase), JSI-124-cucurbitacin (STAT3/Jak2), and NSC23766 (Rac1) were purchased from Merck/CalBiochem. PP2 (Src) and ML-7 (MLC kinase) were purchased from ENZO. Y-27632 (Rock) and SB-431542 (TGFb) were purchased from BioMol Tocris. AG1478 (EGFR) was purchased from BioMol and AG-82 (general protein tyrosine kinases) was purchased from Calbiochem. Cell migration was analyzed in the absence and presence of inhibitors for 4 days.
# A proof of principle drug screen was performed to test the applicability of this procedure to automated high-throughput drug screening assays (HTS). […]
# Chondrosarcoma = test: Inhibitor treatment of spheroids from fresh human chondrosarcoma biopsy in collagen gel; assay type: cell-based; conditions: lowest collagen concentration 1.0 mg/ml; bright-field images after 6 days; treatment from 1 day post-injection
# Description: (§2) FIG. 9: Spheroids obtained from two fresh human biopsies. […] The lowest concentration, row G, triggers the largest migration in Chondrosarcoma as well (G5) while the type of migration remains the same between the row F and row G (see F4, G5). […] Scale=100 μm.
# (§3) Human biopsy material was obtained from surplus material from patients that were surgically treated for chondrosarcoma or osteosarcoma. Tumor cell suspensions were derived from biopsies by overnight collagenase treatment at room temperature.
# as §1
# (§4) Next, cell suspensions were derived from freshly isolated human biopsies of osteosarcoma and chondrosarcoma and injected in gels containing three different collagen concentrations. MS readily formed from these human biopsies and survival and migration could be studied for up to 1 week with the two tumor types showing distinct migratory behavior (FIG. 9). […] MS were treated with the range of compounds described above starting 1 day post-injection. […] Thus, the automated MS injection methodology has the potential to be used for large scale screening for the drug sensitivity spectrum of tumor cells freshly isolated from individual patients.
# Osteosarcoma = test: Inhibitor treatment of spheroids from fresh human osteosarcoma biopsy in collagen gel; assay type: cell-based; conditions: lowest collagen concentration 1.0 mg/ml; bright-field images after 6 days; treatment from 1 day post-injection
# Description: as §2, §3, §1, §4
SMILES,"Feret's Diameter (longest distance between any two points along the selection boundary, maximum caliper), averages (4T1 cells) [mm]","Circularity (4π*area/perimeter^2, 1 = perfect circle), averages (4T1 cells)","Invasion area (area day 4/area day 0), averages (4T1 cells)",Migration of Chondrosarcoma spheroids (Chondrosarcoma),Migration of Osteosarcoma spheroids (Osteosarcoma),Cell migration from 4T1 spheroids (4T1 cells),"Cell survival in 4T1 spheroids (4T1 cells; rhodamine phalloidin actin fluorescence, 4 days treatment)"
COc1cc2ncnc(Nc3cccc(Cl)c3)c2cc1OC [AG1478],0.56,0.19,25.75,block migration completely; also recorded: effectively inhibited migration,block migration; also recorded: effectively inhibited migration,–,–
CCN(CC)CCCC(C)Nc1nc(C)cc(Nc2ccc3nc(C)cc(N)c3c2)n1 (centres unmarked) [NSC23766],0.37,0.29,17.51,–,–,–,–
CC(C)(C)n1nc(-c2ccc(Cl)cc2)c2c(N)ncnc21 [PP2],0.55,0.19,22.48,reduces migration; also recorded: effectively inhibited migration,block migration; also recorded: effectively inhibited migration,–,–
CC(C)(O)/C=C/C(=O)[C@](C)(O)[C@H]1[C@H](O)C[C@@]2(C)[C@@H]3CC=C4[C@@H](C=C(O)C(=O)C4(C)C)[C@]3(C)C(=O)C[C@]12C [JSI-124],0.23,0.78,1.01,block migration completely; also recorded: effectively inhibited migration,block migration; also recorded: effectively inhibited migration,"Effects on cell migration could be clearly observed; also recorded: blocked migration, but left the MS intact",–
O=S(=O)(c1cccc2c(I)cccc12)N1CCCNCC1 [ML-7],–,–,1.09,block migration completely; also recorded: effectively inhibited migration,block migration; also recorded: effectively inhibited migration,Effects on cell migration could be clearly observed,did not survive the treatment; also recorded: affected cell survival
N#CC(C#N)=Cc1cc(O)c(O)c(O)c1 [AG-82],0.46,0.24,20.96,–,–,–,–
C[C@@H](N)[C@H]1CC[C@H](C(=O)Nc2ccncc2)CC1 [Y-27632],0.41,0.35,16.86,stimulates migration,stimulates migration,–,–
NC(=O)c1ccc(-c2nc(-c3ccc4c(c3)OCO4)c(-c3ccccn3)[nH]2)cc1 [SB-431542],0.46,0.22,16,–,–,–,–
O=c1cc(N2CCOCC2)oc2c(-c3ccccc3)cccc12 [LY-294002],0.38,0.26,14.91,–,–,–,–
